The NIST ThermoML archive (doi:10.1021/je700714m)
± gives the expanded uncertainty stated by the source.

Test: xn = mol fraction of the nth substance listed
Conditions: for mass density / speed of sound / viscosity: 100 kPa, Liquid

Work on `COc1ccc(C=O)cc1` [4-methoxybenzaldehyde] + Clc1ccccc1 yielded a surface tension liquid-gas (303.15 K, x1 = 0.144) of 43.12 ± 2.3 mN/m, a surface tension liquid-gas (303.15 K, x1 = 0.2517) of 50.12 ± 2.6 mN/m and a surface tension liquid-gas (303.15 K, x1 = 0.3354) of 56 ± 2.9 mN/m. It also gave a surface tension liquid-gas (303.15 K, x1 = 0.4308) of 62.5 ± 3.2 mN/m, a surface tension liquid-gas (303.15 K, x1 = 0.5457) of 70.14 ± 3.6 mN/m and a surface tension liquid-gas (303.15 K, x1 = 0.6271) of 75.82 ± 3.8 mN/m. The surface tension liquid-gas (303.15 K, x1 = 0.7371) was 84.11 ± 4.2 mN/m, the surface tension liquid-gas (303.15 K, x1 = 0.8079) was 87.59 ± 4.4 mN/m and the surface tension liquid-gas (303.15 K, x1 = 0.9439) was 96.09 ± 4.8 mN/m. It also gave a surface tension liquid-gas (303.15 K, x1 = 1) of 99.08 ± 4.9 mN/m, a mass density (303.15 K, x1 = 0.144) of 1105.1 ± 4.7 kg/m3 and a speed of sound (303.15 K, x1 = 0.144) of 1339 ± 180 m/s. It also gave a viscosity (303.15 K, x1 = 0.144) of 0.8478 ± 0.086 mPa·s, a mass density (303.15 K, x1 = 0.2517) of 1107 ± 4.7 kg/m3 and a speed of sound (303.15 K, x1 = 0.2517) of 1383 ± 190 m/s. For the same compound, the viscosity (303.15 K, x1 = 0.2517) was 1.023 ± 0.1 mPa·s, the mass density (303.15 K, x1 = 0.3354) was 1109.1 ± 4.7 kg/m3 and the speed of sound (303.15 K, x1 = 0.3354) was 1418 ± 190 m/s. The viscosity (303.15 K, x1 = 0.3354) was 1.168 ± 0.11 mPa·s, the mass density (303.15 K, x1 = 0.4308) was 1111.2 ± 4.7 kg/m3 and the speed of sound (303.15 K, x1 = 0.4308) was 1459 ± 190 m/s. For the same compound, the viscosity (303.15 K, x1 = 0.4308) was 1.334 ± 0.13 mPa·s, the mass density (303.15 K, x1 = 0.5457) was 1113.2 ± 4.7 kg/m3 and the speed of sound (303.15 K, x1 = 0.5457) was 1505 ± 200 m/s. The viscosity (303.15 K, x1 = 0.5457) was 1.566 ± 0.15 mPa·s, the mass density (303.15 K, x1 = 0.6271) was 1115.3 ± 4.7 kg/m3 and the speed of sound (303.15 K, x1 = 0.6271) was 1537 ± 200 m/s. The viscosity (303.15 K, x1 = 0.6271) was 1.771 ± 0.16 mPa·s, the mass density (303.15 K, x1 = 0.7371) was 1118 ± 4.7 kg/m3 and the speed of sound (303.15 K, x1 = 0.7371) was 1580 ± 210 m/s. It also gave a viscosity (303.15 K, x1 = 0.7371) of 2.086 ± 0.19 mPa·s, a mass density (303.15 K, x1 = 0.8079) of 1122 ± 4.8 kg/m3 and a speed of sound (303.15 K, x1 = 0.8079) of 1607 ± 210 m/s. It also gave a viscosity (303.15 K, x1 = 0.8079) of 2.353 ± 0.21 mPa·s, a mass density (303.15 K, x1 = 0.9439) of 1124 ± 4.8 kg/m3 and a speed of sound (303.15 K, x1 = 0.9439) of 1662 ± 210 m/s. The viscosity (303.15 K, x1 = 0.9439) was 2.948 ± 0.26 mPa·s, the mass density (303.15 K, x1 = 1) was 1125.5 ± 4.8 kg/m3 and the speed of sound (303.15 K, x1 = 1) was 1684 ± 220 m/s. For the same compound, the viscosity (303.15 K, x1 = 1) was 3.275 ± 0.29 mPa·s, the surface tension liquid-gas (313.15 K, x1 = 0.144) was 41.6 ± 2.2 mN/m and the surface tension liquid-gas (313.15 K, x1 = 0.2517) was 49.11 ± 2.6 mN/m. It also gave a surface tension liquid-gas (313.15 K, x1 = 0.3354) of 55.33 ± 2.9 mN/m, a surface tension liquid-gas (313.15 K, x1 = 0.4308) of 62.12 ± 3.2 mN/m and a surface tension liquid-gas (313.15 K, x1 = 0.5457) of 71.23 ± 3.6 mN/m. It also gave a surface tension liquid-gas (313.15 K, x1 = 0.6271) of 78.22 ± 4 mN/m, a surface tension liquid-gas (313.15 K, x1 = 0.7371) of 83.11 ± 4.2 mN/m and a surface tension liquid-gas (313.15 K, x1 = 0.8079) of 86.41 ± 4.3 mN/m. It also gave a surface tension liquid-gas (313.15 K, x1 = 0.9439) of 94.66 ± 4.7 mN/m, a surface tension liquid-gas (313.15 K, x1 = 1) of 96.11 ± 4.8 mN/m and a mass density (313.15 K, x1 = 0.144) of 1085.1 ± 4.9 kg/m3. For the same compound, the speed of sound (313.15 K, x1 = 0.144) was 820 ± 130 m/s, the viscosity (313.15 K, x1 = 0.144) was 0.7705 ± 0.079 mPa·s and the mass density (313.15 K, x1 = 0.2517) was 1089.3 ± 5 kg/m3. For the same compound, the speed of sound (313.15 K, x1 = 0.2517) was 924 ± 140 m/s, the viscosity (313.15 K, x1 = 0.2517) was 0.9236 ± 0.092 mPa·s and the mass density (313.15 K, x1 = 0.3354) was 1092.1 ± 5 kg/m3. For the same compound, the speed of sound (313.15 K, x1 = 0.3354) was 1004 ± 150 m/s, the viscosity (313.15 K, x1 = 0.3354) was 1.047 ± 0.1 mPa·s and the speed of sound (313.15 K, x1 = 0.4308) was 1097 ± 160 m/s. The viscosity (313.15 K, x1 = 0.4308) was 1.178 ± 0.11 mPa·s, the mass density (313.15 K, x1 = 0.5457) was 1100.5 ± 5 kg/m3 and the speed of sound (313.15 K, x1 = 0.5457) was 1207 ± 170 m/s. The viscosity (313.15 K, x1 = 0.5457) was 1.357 ± 0.13 mPa·s, the mass density (313.15 K, x1 = 0.6271) was 1103.5 ± 5 kg/m3 and the speed of sound (313.15 K, x1 = 0.6271) was 1283 ± 180 m/s. The viscosity (313.15 K, x1 = 0.6271) was 1.497 ± 0.14 mPa·s, the mass density (313.15 K, x1 = 0.7371) was 1107.2 ± 5.1 kg/m3 and the speed of sound (313.15 K, x1 = 0.7371) was 1385 ± 190 m/s. For the same compound, the viscosity (313.15 K, x1 = 0.7371) was 1.762 ± 0.16 mPa·s, the mass density (313.15 K, x1 = 0.8079) was 1110.2 ± 5.1 kg/m3 and the speed of sound (313.15 K, x1 = 0.8079) was 1452 ± 190 m/s. For the same compound, the viscosity (313.15 K, x1 = 0.8079) was 1.986 ± 0.18 mPa·s and the mass density (313.15 K, x1 = 0.9439) was 1116.3 ± 5.1 kg/m3.
